Experimental data published in patent US20120157471A1, “BENZIMIDAZOLE DERIVATIVES” (PFIZER INC., priority 2009, published 2012).
pIC50: −log10 of the molar value. Structures can show the parent of a compound that is named as a salt.

Tests used:
[1] = target: T1, human Smo (amino acids 181-787) (Homo sapiens, UniProt Q99835); assay: Smo radioligand competition binding assay (displacement of 3H-PF-03451358 from HEK293 membranes); conditions: for inhibition at 0.05 µM: 0.05 μM test compound, displacement of 3H-PF-03451358, read-out: SMO % inh. @ 0.05 μM; for pIC50: radioligand competition binding
T1 construct: expressed in transfected cells; membrane preparation
T1 sequence (Q99835 181-787): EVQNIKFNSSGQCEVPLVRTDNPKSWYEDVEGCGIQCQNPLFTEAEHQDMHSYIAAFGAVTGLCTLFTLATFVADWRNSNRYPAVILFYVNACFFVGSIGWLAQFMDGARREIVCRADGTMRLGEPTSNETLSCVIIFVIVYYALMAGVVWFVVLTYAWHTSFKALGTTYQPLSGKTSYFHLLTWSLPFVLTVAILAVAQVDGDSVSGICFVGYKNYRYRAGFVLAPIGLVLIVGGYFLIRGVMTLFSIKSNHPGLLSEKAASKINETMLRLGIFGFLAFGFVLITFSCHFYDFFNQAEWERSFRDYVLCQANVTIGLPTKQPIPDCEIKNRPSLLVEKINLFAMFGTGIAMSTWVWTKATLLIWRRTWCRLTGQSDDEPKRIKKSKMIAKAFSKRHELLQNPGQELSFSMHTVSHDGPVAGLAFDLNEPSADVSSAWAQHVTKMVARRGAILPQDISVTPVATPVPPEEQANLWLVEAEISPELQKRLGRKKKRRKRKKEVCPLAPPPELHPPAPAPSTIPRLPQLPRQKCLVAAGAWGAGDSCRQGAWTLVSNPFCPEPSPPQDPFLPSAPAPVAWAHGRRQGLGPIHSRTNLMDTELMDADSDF
Description: Membranes were prepared from a stable cell line created in HEK293FlpIn-TetR cells (Invitrogen) using FIp recombinase-mediated insertion of the pSecTag-FRT/V5-His vector containing a cDNA encoding amino acids 181-787 of human Smo fused to the murine lgk leader sequence to produce a cell surface expressed Smo 181-781 protein. Hygromycin-resistant clones were obtained and stained for LacZ expression (no expression indicates a correct knock-in of my fusion cDNA). LacZ-negative cells were analyzed for binding tritiated Smo antagonist PF-03451358. For membrane preparation, the HEK293 cells expressing Smo 181-781 were grown to 90% confluence in nine to fifteen 245 mm×245 mm×22 mm dishes, washed with Dulbecco's PBS (15 ml per dish) and harvested via scraping in 10 ml of DPBS. The cells were collected and centrifuged at 1500 rpm (400×g) for 10 min at 4° C. The cell pellets were re-suspended in 40 ml of cold DPBS and washed by centrifugation at 2300 rpm (950×g max) for 10 minutes at 4° C. The supernatant was aspirated and the cell pellet was snap frozen in a methanol/dry ice bath and stored at −70° C. For membrane preparation, 15 ml of Membrane Preparation Buffer (50 mM Tris-HCl pH 7.5, 250 mM sucrose with Roche complete protease cocktail tablets) is added to the tube containing the cell pellet, then cells are rapidly thawed, and homogenized using an Ultra-Turrax T8 (IKA Labortechnik) set on “6” for 15 seconds for 5-6 times in icy water bath. This homogenate was diluted up to 50 ml using Membrane Preparation Buffer and centrifuged at 35,000 rpm in a Beckman Ti45 rotor (140,000×g) for 35 minutes at 4° C. followed by aspiration of the supernatant and re-suspension of the pellet in 5 ml of Assay Buffer (50 mM Tris-HCl pH 7.5, 100 mM NaCl, 25 mM MgCl2, 1 mM EDTA, and 0.1% protease free bovine serum albumin). The re-suspended pellet is then homogenized in a glass tissue grinder. The re-suspended membranes are aliquoted (0.5 ml aliquots), snap frozen and stored at −70° C. Total protein in the membrane preparation is determined using the Pierce BCA protein assay (Pierce Chemical).
For the binding competition assay, 100 μl of Assay Buffer is added to all the wells of a 96 well GF/B filter plate (Millipore MultiScreen-HTS-FB cat# MSFBN6B50) for 10 minutes to pre-wet the filter prior to evacuation of the buffer (8 inches Hg for 8 seconds). To the pre-wet wells is added: 20 μl of Assay Buffer, 10 μl diluted test agent, 20 μl of ^3H-PF-3451358 (15 nM stock solution), and 50 μl of membrane preparation (40 μg total protein per well). The plates are sealed and mixed at room temperature for 5 min, incubated at room temperature for 2 hours, then washed 5 times with 100 μl/each of wash buffer and vacuum dried for 8 seconds at 8 inch Hg. The plate is then dried for one hour in a 60° C. oven prior to the addition of 45 μl of Microscint 20 (Packard, #6013621) to each well and incubation at RT for 30 minutes to 1 hour. The plate is counted in a TopCount scintillation counter (Perkin Elmer).
Data analysis uses Excel for % Inhibition and Graphpad Prism for IC50 calculation. Total binding (TB, in the absence of inhibitors)=average of ^3H PF-03451358 3 nM+SMO membrane (40 μg/wells (approx 5000-7000 CPM). Non-specific binding (NSB)=average of ^3H PF-03451358 (3 nM)+cold PF-03451358 (30 μM)+SMO membrane (approx 600-1200 CPM). Specific binding (SB)=(total binding−non-specific binding). % Inhibition=[1−(compound Specific binding/control Specific binding)]×100%. IC50 is calculated by fitting the data to the four parameter sigmoidal dose-response curve (variable slope) Y=Bottom+(Top-Bottom)/(1+10̂((LogEC50−X)*HillSlope)). X is the logarithm of the inhibitor concentration. Y is the response; Y starts at Bottom and goes to Top with a sigmoid shape.

Gli-Luc/MEF cells (Smo) = assay: Gli-Luc/MEF assay (Shh-stimulated luciferase reporter under the Gli response element); assay type: cell-based, mouse; conditions: Mus musculus, MEF, 48 h
Description: The Gli-Luc/MEF cells obtained from Gli-Luc transgenic mice (Pfizer CoE, Genetically Modified Mice) contain a luciferase reporter gene under the control of the Gli response element. Luciferase activity stimulated with Sonic hedgehog ligand was inhibited by Smo inhibitors, and IC50 was subsequently calculated.
Plates were incubated at 37° C. and 5% CO2 overnight. On day two, cells were dosed with test compounds at a final concentration ranging from […] to 50 μM at a 3-time series dilution. Immediately after dosing cells with compounds, recombinant mouse sonic hedgehog (Shh, R&D Systems 464-SH) was added to a final concentration of 2 μg/mL. The cells were incubated with compounds and Shh for 48 hours at 37° C. and 5% CO2. Luciferase assays were conducted on Day 4 using the Bright-Glo Luciferase assay system (Promega E2620) according to Promega's protocol. Briefly, Bright-Glo luciferase reagent was made up and 25 uL were added to each well of the 384-well plate containing media. Plates were kept at room temperature for 5 minutes, and then read on an Envision Luminescence plate reader (Perkin-Elmer). IC50 of the inhibition was calculated by using GraphPad Prism.

## Cn1c(-c2cc(N3CC[C@@H](O)[C@H](O)C3)ncc2Cl)nc2ccccc21 [Example A-63, (3R,4R)-1-[5-chloro-4-(1-methyl-1H-benzimidazol-2-yl)pyridin-2-yl]piperidine-3,4-diol]
[1]
  inhibition at 0.05 µM: 95%
  pIC50: 7.60
Gli-Luc/MEF cells (Smo)
  pIC50: 7.74

## Cc1nc(CC2CN(c3cc(-c4nc5ccccc5n4C)c(Cl)cn3)CCO2)no1 (stereo not shown) [Example A-52, 2-(5-chloro-2-{2-[(5-methyl-1,2,4-oxadiazol-3-yl)methyl]morpholin-4-yl}pyridin-4-yl)-1-methyl-1H-benzimidazole]
[1]
  inhibition at 0.05 µM: 99%
  pIC50: 7.89
Gli-Luc/MEF cells (Smo)
  pIC50: 7.89

## CC(=O)NC1CCN(c2ccc(Cl)c(-c3nc4ccccc4n3C)n2)CC1 [Example B-11, N-{1-[5-chloro-6-(1-methyl-1H-benzimidazol-2-yl)pyridin-2-yl]piperidin-4-yl}acetamide]
[1]
  inhibition at 0.05 µM: 98%
  pIC50: 7.80
Gli-Luc/MEF cells (Smo)
  pIC50: 8.15

## COC1CCN(c2cc(-c3nc4cccnc4n3C)c(Cl)cn2)CC1 [Example A-38, 2-[5-chloro-2-(4-methoxypiperidin-1-yl)pyridin-4-yl]-3-methyl-3H-imidazo[4,5-b]pyridine]
[1]
  inhibition at 0.05 µM: 51%
  pIC50: 6.33

## Cn1c(-c2cc(N3CCC(F)(F)CC3)ncc2Cl)nc2ccccc21 [Example A-210, 2-[5-chloro-2-(4,4-difluoropiperidin-1-yl)pyridin-4-yl]-1-methyl-1H-benzimidazole]
[1]
  inhibition at 0.05 µM: 87%
  pIC50: 7.24
Gli-Luc/MEF cells (Smo)
  pIC50: 7.66

## Cc1nccn1CC1(O)CCN(c2cc(-c3nc4ccccc4n3C)c(Cl)cn2)C1 (stereo not shown) [Example A-135, 1-[5-chloro-4-(1-methyl-1H-benzimidazol-2-yl)pyridin-2-yl]-3-[(2-methyl-1H-imidazol-1-yl)methyl]pyrrolidin-3-ol]
[1]
  inhibition at 0.05 µM: 46%

## Cn1c(-c2cc(NCCN)ncc2Cl)nc2ccccc21 [Example A-142, N-[5-chloro-4-(1-methyl-1H-benzimidazol-2-yl)pyridin-2-yl]ethane-1,2-diamine]
[1]
  inhibition at 0.05 µM: 44%

## Cn1c(-c2cc(N3CCC(O)(CN4CCCC4=O)C3)ncc2Cl)nc2ccccc21 (stereo not shown) [Example A-136, 1-({1-[5-chloro-4-(1-methyl-1H-benzimidazol-2-yl)pyridin-2-yl]-3-hydroxypyrrolidin-3-yl}methyl)pyrrolidin-2-one]
[1]
  inhibition at 0.05 µM: 46%

## CC(=O)NC1CCN(c2cc(-c3nc4ccccc4n3C)c(Cl)cn2)C1 (stereo in doubt) [Example A-134, N-{(3S)-1-[5-chloro-4-(1-methyl-1H-benzimidazol-2-yl)pyridin-2-yl]pyrrolidin-3-yl}acetamide]
[1]
  inhibition at 0.05 µM: 48%

## Cn1c(-c2cc(N3CCC(C(=O)O)CC3)ncc2Cl)nc2ccccc21 [Example A-7, 1-[5-chloro-4-(1-methyl-1H-benzimidazol-2-yl)pyridin-2-yl]piperidine-4-carboxylic acid]
[1]
  inhibition at 0.05 µM: 39%

## Cn1c(-c2cc(N3CCC(O)(c4ncccn4)C3)ncc2Cl)nc2ccccc21 (stereo not shown) [Example A-140, 1-[5-chloro-4-(1-methyl-1H-benzimidazol-2-yl)pyridin-2-yl]-3-pyrimidin-2-ylpyrrolidin-3-ol]
[1]
  inhibition at 0.05 µM: 42%

## Cn1c(-c2cc(N3CCC(S(C)(=O)=O)CC3)ncc2Cl)nc2cccnc21 [Example A-37, 2-{5-chloro-2-[4-(methylsulfonyl)piperidin-1-yl]pyridin-4-yl}-3-methyl-3H-imidazo[4,5-b]pyridine]
[1]
  inhibition at 0.05 µM: 67%
  pIC50: 6.61

## COC(=O)N1CCN(c2nccc(-c3nc4ccccc4n3C)n2)CC1 [Example C-6, Methyl 4-[4-(1-methyl-1H-benzimidazol-2-yl)pyrimidin-2-yl]piperazine-1-carboxylate]
[1]
  inhibition at 0.05 µM: 27%

## Cn1c(-c2nc(N3CCNCC3)ccc2Cl)nc2ccccc21 [Example B-1, 2-(3-chloro-6-piperazin-1-ylpyridin-2-yl)-1-methyl-1H-benzimidazole formate salt]
[1]
  inhibition at 0.05 µM: 59%

## Cn1c(-c2cc(NCCS(C)(=O)=O)ncc2Cl)nc2ccccc21 [Example A-167, 5-chloro-4-(1-methyl-1H-benzimidazol-2-yl)-N-[2-(methylsulfonyl)ethyl]pyridin-2-amine]
[1]
  inhibition at 0.05 µM: 64%
  pIC50: 6.54

## Cn1c(-c2cc(N3CC(c4cccnn4)C3)ncc2Cl)nc2ccccc21 [Example A-139, 2-[5-chloro-2-(3-pyridazin-3-ylazetidin-1-yl)pyridin-4-yl]-1-methyl-1H-benzimidazole]
[1]
  inhibition at 0.05 µM: 42%

## Cn1c(-c2ccnc(N3CCN(S(C)(=O)=O)CC3)n2)nc2ccccc21 [Example C-4, 1-Methyl-2-{2-[4-(methylsulfonyl)piperazin-1-yl]pyrimidin-4-yl}-1H-benzimidazole]
[1]
  inhibition at 0.05 µM: 45%

## Cn1c(-c2cc(N3CC(c4ncc[nH]4)C3)ncc2Cl)nc2ccccc21 [Example A-133, 2-{5-chloro-2-[3-(1H-imidazol-2-yl)azetidin-1-yl]pyridin-4-yl}-1-methyl-1H-benzimidazole]
[1]
  inhibition at 0.05 µM: 48%

## CN(CCN)c1cc(-c2nc3ccccc3n2C)c(Cl)cn1 [Example A-184, N-[5-chloro-4-(1-methyl-1H-benzimidazol-2-yl)pyridin-2-yl]-N-methylethane-1,2-diamine]
[1]
  inhibition at 0.05 µM: 50%
  pIC50: 6.47

## CN1CCN(C2COCCN(c3cc(-c4nc5ccccc5n4C)c(Cl)cn3)C2)CC1 (stereo not shown) [Example A-137, 2-{5-chloro-2-[6-(4-methylpiperazin-1-yl)-1,4-oxazepan-4-yl]pyridin-4-yl}-1-methyl-1H-benzimidazole]
[1]
  inhibition at 0.05 µM: 45%

## Cn1cnnc1C1CCCN(c2cc(-c3nc4ccccc4n3C)c(Cl)cn2)C1 (stereo not shown) [Example A-138, 2-{5-chloro-2-[3-(4-methyl-4H-1,2,4-triazol-3-yl)piperidin-1-yl]pyridin-4-yl}-1-methyl-1H-benzimidazole]
[1]
  inhibition at 0.05 µM: 45%

## CC(=O)N1CCN(c2nccc(-c3nc4ccccc4n3C)n2)CC1 [Example C-2, 2-[2-(4-Acetylpiperazin-1-yl)pyrimidin-4-yl]-1-methyl-1H-benzimidazole]
[1]
  inhibition at 0.05 µM: 65%
  pIC50: 6.35

## CC(=O)N1CCN(c2cc(-c3nc4cccnc4n3C)c(Cl)cn2)CC1 [Example A-40, 2-[2-(4-acetylpiperazin-1-yl)-5-chloropyridin-4-yl]-3-methyl-3H-imidazo[4,5-b]pyridine]
[1]
  inhibition at 0.05 µM: 66%
  pIC50: 6.80
